Laboratory results published in paper PMC5653977 (EMBO Molecular Medicine, 2017).
Where a name gives a salt, the structure may show the parent alone.

tested on: NRG1-ERBB4 signaling; experiment: Nrg1-ERBB4-PIK3R1 split TEV co-culture compound screen of the NIH Clinical Collection; format: cell-based, human; conditions: NIH Clinical Collection NCC-003 raw data; compounds ranked by Z-score; 'flagged' given instead of a Z-score

First: COc1ccccc1OCCNCC(O)COc1cccc2[nH]c3ccccc3c12 (centres unmarked) [Carvedilol]
Second: CC(C)(O)c1ccccc1CC[C@@H](SCC1(CC(=O)[O-])CC1)c1cccc(/C=C/c2ccc3ccc(Cl)cc3n2)c1.[Na+] [MONTELUKAST Na]
The Z-SCORE of the first is lower: -1.89 for the first, -1.21 for the second.

First: O=C(O)c1cc(/N=N/c2ccc(S(=O)(=O)Nc3ccccn3)cc2)ccc1O [SULFASALAZINE]
Second: CCC(C)n1ncn(-c2ccc(N3CCN(c4ccc(OCC5COC(Cn6cncn6)(c6ccc(Cl)cc6Cl)O5)cc4)CC3)cc2)c1=O (centres unmarked) [Itraconazole, reference compound]
The Z-SCORE of the first is higher: -2.84 for the first, -3.6 for the second.

`C=CC[C@@H]1/C=C(\C)C[C@H](C)C[C@H](OC)[C@H]2O[C@@](O)(C(=O)C(=O)N3CCCC[C@H]3C(=O)O[C@H](/C(C)=C/[C@@H]3CC[C@@H](O)[C@H](OC)C3)[C@H](C)[C@@H](O)CC1=O)[C@H](C)C[C@@H]2OC` [TACROLIMUS] gave a Z-SCORE of -1.97.

same assay, conditions: compound screen of the NIH Clinical Collection, sheet raw data NCC-003; compounds ranked by Z-score

Compared with `O=C(CCCN1CC=C(n2c(=O)[nH]c3ccccc32)CC1)c1ccc(F)cc1` [DROPERIDOL], `O=C(CCCN1CCC(O)(c2ccc(Cl)cc2)CC1)c1ccc(F)cc1` [Haloperidol] is lower in Z-SCORE: -0.96 for the first, -0.98 for the second.

Compared with `O=C1CN=C(c2ccccc2)c2cc([N+](=O)[O-])ccc2N1` [Nitrazepam], `CNC1CC(c2ccc(Cl)c(Cl)c2)c2ccccc21` (centres unmarked) [Indatraline] is higher in Z-SCORE: -0.23 for the first, 0.28 for the second.

Going from `O=c1[nH]cnc2c1ncn2[C@H]1CC[C@@H](CO)O1` [2',3'-DIDEOXYINOSINE] to `Cc1[nH]cnc1CN1CCc2c(c3ccccc3n2C)C1=O` [ALOSETRON HCl], the Z-SCORE rises from -0.13 to 0.99.

Going from `CC(C)CC(N(C)C)C1(c2ccc(Cl)cc2)CCC1` (centres unmarked) [Sibutramine] to `CN(C)CCCC1(c2ccc(F)cc2)OCc2cc(C#N)ccc21` (centres unmarked) [Citalopram hydrobromide], the Z-SCORE falls from -0.34 to -0.45.

First: Cc1nc2ccc(CN(C)c3ccc(C(=O)N[C@@H](CCC(=O)O)C(=O)O)s3)cc2c(=O)[nH]1 [RALTITREXED]
Second: CCOc1cc(CC(=O)N[C@@H](CC(C)C)c2ccccc2N2CCCCC2)ccc1C(=O)O [REPAGLINIDE]
The Z-SCORE of the first is lower: -0.52 for the first, 1.38 for the second.

Compared with `CC(C(=O)O)c1ccc(CC2CCCC2=O)cc1` (centres unmarked) [LOXOPROFEN SODIUM], `Cc1ccsc1C(=CCCN1CCC[C@@H](C(=O)O)C1)c1sccc1C` [TIAGABINE HCl] is lower in Z-SCORE: 0.32 for the first, -0.1 for the second.

First: CC[C@@H](C(N)=O)N1CCCC1=O
Second: CCN1CCCC1CNC(=O)c1cc(S(=O)(=O)CC)c(N)cc1OC (centres unmarked) [Amisulpride]
The Z-SCORE of the first is lower: -0.28 for the first, 0.41 for the second.

Going from `FC(F)(F)c1cccc(N2CCNCC2)c1` [TFMPP] to `Clc1ccc2c(c1)CCc1cccnc1C2=C1CCNCC1`, the Z-SCORE falls from 1.34 to 0.4.

First: C=C1/C(=C\C=C2/CCC[C@]3(C)[C@@H]([C@H](C)/C=C/[C@@H](O)C4CC4)CC[C@@H]23)C[C@@H](O)C[C@@H]1O [CALCIPOTRIOL]
Second: C[C@]12CCC(=O)C[C@@H]1CC[C@@H]1[C@@H]2CC[C@@]2(C)[C@H]1CC[C@]2(C)O [Mestanolone]
The Z-SCORE of the first is lower: -0.04 for the first, 1.19 for the second.

First: O=C(CCNNC(=O)c1ccncc1)NCc1ccccc1 [NIALAMIDE]
Second: CCN(CC)CCOC(=O)C(O)(c1ccccc1)c1ccccc1 [BENACTYZINE HYDROCHLORIDE]
The Z-SCORE of the first is lower: 1.7 for the first, 2.48 for the second.

Going from `COc1cc(N)c(Cl)cc1C(=O)NC1CCN(CCCOc2ccc(F)cc2)CC1OC` (centres unmarked) [Cisapride] to `Fc1ccc([C@@H]2CCNC[C@H]2COc2ccc3c(c2)OCO3)cc1` [Paroxetine, reference compound], the Z-SCORE rises from -0.15 to 2.09.

Compared with `Cl.OC1CCCCC1N1CCC(c2ccccc2)CC1` (racemic) [(±)-Vesamicol hydrochloride], `Oc1cc2c(cc1O)[C@@H]1c3ccccc3CN[C@H]1CC2` is higher in Z-SCORE: -0.04 for the first, 0.99 for the second.

First: O=C1N[C@H](C(=O)O)CS1
Second: CCN1CCN(c2cc3c(cc2F)c(=O)c(C(=O)O)cn3C2CC2)CC1 [ENROFLOXACIN]
The Z-SCORE of the first is higher: 0.84 for the first, 0.83 for the second.

Compared with `CCOC(=O)c1ncn2c1CN(C)C(=O)c1cc(F)ccc1-2` [FLUMAZENIL], `CCN(CC)CC(=O)Nc1c(C)cccc1C` [LIDOCAINE] is higher in Z-SCORE: 0.09 for the first, 1.02 for the second.

Compared with `COc1ccc(CC2c3cc(OC)c(OC)cc3CC[N+]2(C)CCC(=O)OCCCCCOC(=O)CC[N+]2(C)CCc3cc(OC)c(OC)cc3C2Cc2ccc(OC)c(OC)c2)cc1OC` (centres unmarked) [ATRACURIUM BESYLATE], `CC(C)c1ccc2c(c1)c(SC(C)(C)C)c(CC(C)(C)C(=O)O)n2Cc1ccc(Cl)cc1` is higher in Z-SCORE: -0.66 for the first, 0.23 for the second.

Going from `N#CCc1ccccc1` [Benzeneacetonitrile] to `NCCc1ccccn1` [2-(2-AMINOETHYL)PYRIDINE], the Z-SCORE rises from 0.03 to 2.15.

Going from `Nc1ccc2cn[nH]c2c1` [6-AMINOINDAZOLE] to `CC(Oc1c(Cl)cccc1Cl)C1=NCCN1` (centres unmarked) [LOFEXIDINE HCl], the Z-SCORE falls from 0.45 to -0.17.

First: CN1CCC(=C2c3ccccc3CC(=O)c3sccc32)CC1 [KETOTIFEN FUMARATE]
Second: CC[C@]1(O)CC[C@H]2[C@@H]3CCC4=CCCC[C@@H]4[C@H]3CC[C@@]21C [Ethylestrenol]
The Z-SCORE of the first is higher: -0.37 for the first, -0.98 for the second.

`CCS(=O)(=O)CCn1c([N+](=O)[O-])cnc1C` [TINIDAZOLE] gave a Z-SCORE of -0.51.

same assay, conditions: compound screen of the NIH Clinical Collection, sheet raw data NCC-003; compounds ranked by Z-score; listed as PAROXETINE

`Fc1ccc([C@@H]2CCNC[C@H]2COc2ccc3c(c2)OCO3)cc1` [Paroxetine, reference compound] was tested, and the Z-SCORE was 1.3.

same assay, conditions: compounds at 10 μM, 24 h; PC12 split TEV assay cells co-cultured with Nrg1-expressing PC12 cells; analysed with cellHTS2

First: CC1=C(CC(=O)O)c2cc(F)ccc2/C1=C\c1ccc([S+](C)[O-])cc1 (centres unmarked) [Sulindac, reference compound]
Second: Fc1ccc([C@@H]2CCNC[C@H]2COc2ccc3c(c2)OCO3)cc1 [Paroxetine, reference compound]
The Z-SCORE of the first is higher: 1.51 for the first, -0.28 for the second.

Going from `CCCC(C)(COC(N)=O)COC(=O)NC(C)C` (centres unmarked) [Carisoprodol, reference compound] to `C[C@H](CS)C(=O)N1CCC[C@H]1C(=O)O` [CAPTOPRIL, reference compound], the Z-SCORE rises from -0.82 to -0.02.

Going from `COC(=O)[C@H](c1ccccc1Cl)N1CCc2sccc2C1` [clopidogrel, reference compound] to `O=C(O)COCCN1CCN(C(c2ccccc2)c2ccc(Cl)cc2)CC1` (centres unmarked) [Cetirizine, reference compound], the Z-SCORE rises from -0.3 to 0.89.

Going from `CCC(C)n1ncn(-c2ccc(N3CCN(c4ccc(OCC5COC(Cn6cncn6)(c6ccc(Cl)cc6Cl)O5)cc4)CC3)cc2)c1=O` (centres unmarked) [Itraconazole, reference compound] to `CC(C)(C(=O)O)c1ccc(C(O)CCCN2CCC(C(O)(c3ccccc3)c3ccccc3)CC2)cc1` (centres unmarked) [Allegra, reference compound], the Z-SCORE rises from -3.6 to -0.84.

Compared with `CN(C)CCOC(c1ccc(Cl)cc1)c1ccccn1` (centres unmarked) [Carbinoxamine Maleate, reference compound], `CN(C)CCCN1c2ccccc2Sc2ccc(Cl)cc21` [Sonazine, reference compound] is higher in Z-SCORE: -0.31 for the first, 0.6 for the second.

First: Cc1nnc(SCC2=C(C(=O)O)N3C(=O)[C@@H](NC(=O)Cn4cnnn4)[C@H]3SC2)s1 [CEFAZOLIN SODIUM SALT, reference compound]
Second: CO/N=C(\C(=O)N[C@@H]1C(=O)N2C(C(=O)O)=C(COC(C)=O)CS[C@H]12)c1csc(N)n1 [CEFOTAXIME SODIUM SALT, reference compound]
The Z-SCORE of the first is lower: -0.74 for the first, -0.2 for the second.

First: NC12CC3CC(CC(C3)C1)C2 [Symmetrel, reference compound]
Second: CCc1c(C)[nH]c2c1C(=O)C(CN1CCOCC1)CC2 (centres unmarked) [Moban, reference compound]
The Z-SCORE of the first is higher: 0.15 for the first, -0.44 for the second.

Going from `Nc1ncnc2c1ncn2[C@@H]1O[C@H](CO)[C@@H](O)[C@@H]1O` [Adenine 9-beta, reference compound] to `CN[C@@H]1[C@H](O)[C@H](NC)[C@H]2O[C@@]3(O)C(=O)C[C@@H](C)O[C@H]3O[C@@H]2[C@H]1O.Cl.Cl.O.O.O.O.O` [SPECTINOMYCIN DIHYDROCHLORIDE PENTAHYDRATE, reference compound], the Z-SCORE falls from 1.63 to 0.04.

Compared with `OC(CCN1CCCC1)(c1ccccc1)C1CCCCC1` (centres unmarked) [Kemadrin, reference compound], `C#CCN(C)[C@H](C)Cc1ccccc1.Cl` [DEPRENALIN, reference compound] is higher in Z-SCORE: -0.51 for the first, 0.31 for the second.

First: O=C(O)c1cccnc1 [Nicotinic Acid, reference compound]
Second: NC(=O)c1cnccn1 [Pyrazinamide, reference compound]
The Z-SCORE of the first is lower: -0.31 for the first, 1.05 for the second.

First: CC(COc1ccccc1)NC(C)C(O)c1ccc(O)cc1 (centres unmarked) [Duvadilan, reference compound]
Second: CCN(CC)CCOc1ccc(C(=C(Cl)c2ccccc2)c2ccccc2)cc1 [Clomid, reference compound]
The Z-SCORE of the first is lower: -1.36 for the first, -1.33 for the second.

First: CO[C@H]1/C=C/O[C@@]2(C)Oc3c(C)c(O)c4c(O)c(c(/C=N/N5CCN(C)CC5)c(O)c4c3C2=O)NC(=O)/C(C)=C\C=C\[C@H](C)[C@H](O)[C@@H](C)[C@@H](O)[C@@H](C)[C@H](OC(C)=O)[C@@H]1C [RIFAMPICIN, reference compound]
Second: CC(=O)OCC(=O)[C@@]12OC(C)(C)O[C@@H]1C[C@H]1[C@@H]3C[C@H](F)C4=CC(=O)C=C[C@]4(C)[C@@]3(F)[C@@H](O)C[C@@]12C [FLUOCINOLONE ACETONIDE 21-ACETATE, reference compound]
The Z-SCORE of the first is lower: -0.22 for the first, 0.81 for the second.

Compared with `CC1=C(/C=C/C(C)=C/C=C/C(C)=C/C(=O)O)C(C)(C)CCC1` [Retinoic acid, reference compound], `C[C@H]1O[C@@H](O[C@H]2[C@@H](O)C[C@H](O[C@H]3[C@@H](O)C[C@H](O[C@H]4CC[C@@]5(C)[C@H](CC[C@@H]6[C@@H]5C[C@@H](O)[C@]5(C)[C@@H](C7=CC(=O)OC7)CC[C@]65O)C4)O[C@@H]3C)O[C@@H]2C)C[C@H](O)[C@@H]1O` [DIGOXIN, reference compound] is lower in Z-SCORE: 1.72 for the first, -1.73 for the second.

First: NS(=O)(=O)c1cc2c(cc1C(F)(F)F)NC(Cc1ccccc1)NS2(=O)=O (centres unmarked) [Bendrofluazide, reference compound]
Second: NS(=O)(=O)c1cc(C(=O)O)c(NCc2ccco2)cc1Cl [FUROSEMIDE, reference compound]
The Z-SCORE of the first is lower: 0.53 for the first, 0.8 for the second.

Compared with `Cc1cc(NS(=O)(=O)c2ccc(N)cc2)no1` [Sulfamethoxazole, reference compound], `c1ccc2c(CC3=NCCN3)cccc2c1` [Albalon, reference compound] is lower in Z-SCORE: 0.87 for the first, -0.27 for the second.

For `OC(c1cc(C(F)(F)F)nc2c(C(F)(F)F)cccc12)C1CCCCN1` (centres unmarked) [Mefloquine hydrochloride, reference compound], the Z-SCORE was “flagged”.
